From the supplement of paper PMC10307832

Experiments:
Experiment in all cases: relative viability (nuclei count vs DMSO), 5 days (fraction); higher = more cells survive
NCI-H1993 = test system: NCI-H1993
How it was run: (§1)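 After 5 days of treatment, lung cancer cells in 1536-well plates were fixed and stained in a single step (final 0.05% Triton X-100, 1% formaldehyde, 1 ug/ml Hoechst) and their nuclei counted on 4× images. Treatment had been applied by pin tool the day after seeding as one drug alone or as a fixed anchor-drug dose with five library-drug doses (not always all listed) in √10 steps. Relative viability is the nuclei count of treated wells divided by that of vehicle wells, and values are medians of duplicate plates.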

NCI-H2405 = test system: NCI-H2405
How it was run: as §1

NCI-H1395 = test system: NCI-H1395
How it was run: as §1

NCI-H2087 = test system: NCI-H2087
How it was run: as §1

NCI-H1792 = test system: NCI-H1792
How it was run: as §1

NCI-H2342 = test system: NCI-H2342
How it was run: as §1

LOU-NH91 = test system: LOU-NH91
How it was run: as §1

HARA = test system: HARA
How it was run: as §1

BEN = test system: BEN
How it was run: as §1

HCC-827 = test system: HCC-827
How it was run: as §1

EKVX = test system: EKVX
How it was run: as §1

NCI-H1355 = test system: NCI-H1355
How it was run: as §1

NCI-H522 = test system: NCI-H522
How it was run: as §1

NCI-H1437 = test system: NCI-H1437
How it was run: as §1

HCC-366 = test system: HCC-366
How it was run: as §1

NCI-H1734 = test system: NCI-H1734
How it was run: as §1

NCI-H647 = test system: NCI-H647
How it was run: as §1

NCI-H2170 = test system: NCI-H2170
How it was run: as §1

In the case of `COc1cc2nccc(Oc3ccc(NC(=O)Nc4cc(C)on4)c(Cl)c3)c2cc1OC` [Tivozanib] + NC(=O)Nc1cc(-c2cccc(F)c2)sc1C(=O)N[C@H]1CCCNC1 [AZD7762] (partner 0.2 µM), the relative viability (NCI-H1993; first compound 0.005 µM) was 0.722, the relative viability (NCI-H1993; first compound 0.01581 µM) was 0.714 and the relative viability (NCI-H1993; first compound 0.05 µM) was 0.968. For the same compound, the relative viability (NCI-H1993; first compound 0.1581 µM) was 0.631, the relative viability (NCI-H1993; first compound 0.5 µM) was 0.664 and the relative viability (NCI-H2405; first compound 0.005 µM) was 0.759. The relative viability (NCI-H2405; first compound 0.01581 µM) was 0.893, the relative viability (NCI-H2405; first compound 0.05 µM) was 0.735 and the relative viability (NCI-H2405; first compound 0.1581 µM) was 0.905. For the same compound, the relative viability (NCI-H2405; first compound 0.5 µM) was 0.518, the relative viability (NCI-H1395; first compound 0.005 µM) was 0.359 and the relative viability (NCI-H1395; first compound 0.01581 µM) was 0.389. It also gave a relative viability (NCI-H1395; first compound 0.05 µM) of 0.402, a relative viability (NCI-H1395; first compound 0.1581 µM) of 0.386 and a relative viability (NCI-H1395; first compound 0.5 µM) of 0.35. For the same compound, the relative viability (NCI-H2087; first compound 0.005 µM) was 1.3, the relative viability (NCI-H2087; first compound 0.01581 µM) was 1.3 and the relative viability (NCI-H2087; first compound 0.05 µM) was 1.28. The relative viability (NCI-H2087; first compound 0.1581 µM) was 1.55, the relative viability (NCI-H2087; first compound 0.5 µM) was 1.22 and the relative viability (NCI-H1792; first compound 0.005 µM) was 0.641. It also gave a relative viability (NCI-H1792; first compound 0.01581 µM) of 0.646, a relative viability (NCI-H1792; first compound 0.05 µM) of 0.509 and a relative viability (NCI-H1792; first compound 0.5 µM) of 0.53. It also gave a relative viability (NCI-H2342; first compound 0.005 µM) of 0.492, a relative viability (NCI-H2342; first compound 0.01581 µM) of 0.431 and a relative viability (NCI-H2342; first compound 0.05 µM) of 0.609. For the same compound, the relative viability (NCI-H2342; first compound 0.5 µM) was 0.414, the relative viability (LOU-NH91; first compound 0.005 µM) was 0.712 and the relative viability (LOU-NH91; first compound 0.01581 µM) was 0.77. It also gave a relative viability (LOU-NH91; first compound 0.05 µM) of 0.753, a relative viability (LOU-NH91; first compound 0.1581 µM) of 0.734 and a relative viability (LOU-NH91; first compound 0.5 µM) of 0.701. It also gave a relative viability (HARA; first compound 0.005 µM) of 0.268, a relative viability (HARA; first compound 0.01581 µM) of 0.335 and a relative viability (HARA; first compound 0.05 µM) of 0.424. It also gave a relative viability (HARA; first compound 0.1581 µM) of 0.231, a relative viability (HARA; first compound 0.5 µM) of 0.267 and a relative viability (BEN; first compound 0.005 µM) of 0.6. For the same compound, the relative viability (BEN; first compound 0.01581 µM) was 0.712, the relative viability (BEN; first compound 0.05 µM) was 0.869 and the relative viability (BEN; first compound 0.1581 µM) was 0.375. For the same compound, the relative viability (BEN; first compound 0.5 µM) was 0.737, the relative viability (HCC-827; first compound 0.005 µM) was 0.202 and the relative viability (HCC-827; first compound 0.01581 µM) was 0.25. For the same compound, the relative viability (HCC-827; first compound 0.05 µM) was 0.314, the relative viability (HCC-827; first compound 0.1581 µM) was 0.185 and the relative viability (HCC-827; first compound 0.5 µM) was 0.194. The relative viability (EKVX; first compound 0.005 µM) was 0.592, the relative viability (EKVX; first compound 0.01581 µM) was 0.695 and the relative viability (EKVX; first compound 0.05 µM) was 0.76. For the same compound, the relative viability (EKVX; first compound 0.1581 µM) was 0.69, the relative viability (EKVX; first compound 0.5 µM) was 0.689 and the relative viability (NCI-H1355; first compound 0.005 µM) was 0.737. It also gave a relative viability (NCI-H1355; first compound 0.01581 µM) of 0.731, a relative viability (NCI-H1355; first compound 0.05 µM) of 0.799 and a relative viability (NCI-H1355; first compound 0.1581 µM) of 0.606. For the same compound, the relative viability (NCI-H1355; first compound 0.5 µM) was 0.716, the relative viability (NCI-H522; first compound 0.005 µM) was 0.903 and the relative viability (NCI-H522; first compound 0.01581 µM) was 0.793. The relative viability (NCI-H522; first compound 0.05 µM) was 0.784, the relative viability (NCI-H522; first compound 0.1581 µM) was 0.811 and the relative viability (NCI-H522; first compound 0.5 µM) was 0.857. The relative viability (NCI-H1437; first compound 0.005 µM) was 1.12, the relative viability (NCI-H1437; first compound 0.01581 µM) was 1.16 and the relative viability (NCI-H1437; first compound 0.05 µM) was 1.07. The relative viability (NCI-H1437; first compound 0.1581 µM) was 1.17, the relative viability (NCI-H1437; first compound 0.5 µM) was 1.04 and the relative viability (HCC-366; first compound 0.005 µM) was 0.333. For the same compound, the relative viability (HCC-366; first compound 0.01581 µM) was 0.245, the relative viability (HCC-366; first compound 0.05 µM) was 0.35 and the relative viability (HCC-366; first compound 0.1581 µM) was 0.362. For the same compound, the relative viability (HCC-366; first compound 0.5 µM) was 0.25, the relative viability (NCI-H1734; first compound 0.005 µM) was 0.515 and the relative viability (NCI-H1734; first compound 0.01581 µM) was 0.524. The relative viability (NCI-H1734; first compound 0.05 µM) was 0.523, the relative viability (NCI-H1734; first compound 0.1581 µM) was 0.408 and the relative viability (NCI-H1734; first compound 0.5 µM) was 0.451. It also gave a relative viability (NCI-H647; first compound 0.005 µM) of 0.367, a relative viability (NCI-H647; first compound 0.01581 µM) of 0.42 and a relative viability (NCI-H647; first compound 0.05 µM) of 0.789. For the same compound, the relative viability (NCI-H647; first compound 0.1581 µM) was 0.377, the relative viability (NCI-H647; first compound 0.5 µM) was 0.369 and the relative viability (NCI-H2170; first compound 0.005 µM) was 0.689. For the same compound, the relative viability (NCI-H2170; first compound 0.01581 µM) was 0.785, the relative viability (NCI-H2170; first compound 0.05 µM) was 0.809 and the relative viability (NCI-H2170; first compound 0.5 µM) was 0.856.
